The source made the active and inactive calls.
Key:
[1] = target: T1, Tyrosyl-DNA phosphodiesterase 2 (Homo sapiens, UniProt O95551); assay: human TDP2 enzyme inhibitors, dose response, biochemical, epi absorbance, IC50 (AID 743297)
T1 sequence (O95551 whole entry): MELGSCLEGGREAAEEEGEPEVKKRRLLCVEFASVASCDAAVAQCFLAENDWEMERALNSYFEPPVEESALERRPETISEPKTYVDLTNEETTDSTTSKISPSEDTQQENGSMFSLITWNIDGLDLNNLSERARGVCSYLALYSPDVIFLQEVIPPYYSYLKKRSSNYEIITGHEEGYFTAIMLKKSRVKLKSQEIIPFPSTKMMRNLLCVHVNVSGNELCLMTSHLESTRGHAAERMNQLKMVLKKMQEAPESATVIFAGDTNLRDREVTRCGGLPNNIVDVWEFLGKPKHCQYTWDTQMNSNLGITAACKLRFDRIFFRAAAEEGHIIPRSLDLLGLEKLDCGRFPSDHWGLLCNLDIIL

[2] = target: Heat shock protein HSP 90-alpha (Homo sapiens, UniProt P07900); format: functional, organism-based
[3] = target: T2, Fatty acid synthase (Homo sapiens, UniProt P49327); assay: FAS thioesterase domain inhibitors, dose response, biochemical, kinetic fluorescence intensity (AID 624326); format: functional;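 note: rate of fluorescence rise from hydrolysis of a fluorogenic O-methyl fluorescein ester substrate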
[4] = target: Dual specificity tyrosine-phosphorylation-regulated kinase 1A (Rattus norvegicus, UniProt Q63470); format: biochemical, Homo sapiens
[5] = target: Paired box protein Pax-8 (Homo sapiens, UniProt Q06710); assay: inhibitors of PAX8-driven TPO luciferase reporter, dose response, RMG-I cells, cherry-pick (AID 687027); format: functional, cell-based;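 note: luciferase reporter driven by Pax8 target thyroperoxidase promoter measured by SteadyGlo luminescence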
[6] = target: T3, Histone-lysine N-methyltransferase NSD2 (Homo sapiens, UniProt O96028); format: biochemical
T3 sequence (O96028 whole entry): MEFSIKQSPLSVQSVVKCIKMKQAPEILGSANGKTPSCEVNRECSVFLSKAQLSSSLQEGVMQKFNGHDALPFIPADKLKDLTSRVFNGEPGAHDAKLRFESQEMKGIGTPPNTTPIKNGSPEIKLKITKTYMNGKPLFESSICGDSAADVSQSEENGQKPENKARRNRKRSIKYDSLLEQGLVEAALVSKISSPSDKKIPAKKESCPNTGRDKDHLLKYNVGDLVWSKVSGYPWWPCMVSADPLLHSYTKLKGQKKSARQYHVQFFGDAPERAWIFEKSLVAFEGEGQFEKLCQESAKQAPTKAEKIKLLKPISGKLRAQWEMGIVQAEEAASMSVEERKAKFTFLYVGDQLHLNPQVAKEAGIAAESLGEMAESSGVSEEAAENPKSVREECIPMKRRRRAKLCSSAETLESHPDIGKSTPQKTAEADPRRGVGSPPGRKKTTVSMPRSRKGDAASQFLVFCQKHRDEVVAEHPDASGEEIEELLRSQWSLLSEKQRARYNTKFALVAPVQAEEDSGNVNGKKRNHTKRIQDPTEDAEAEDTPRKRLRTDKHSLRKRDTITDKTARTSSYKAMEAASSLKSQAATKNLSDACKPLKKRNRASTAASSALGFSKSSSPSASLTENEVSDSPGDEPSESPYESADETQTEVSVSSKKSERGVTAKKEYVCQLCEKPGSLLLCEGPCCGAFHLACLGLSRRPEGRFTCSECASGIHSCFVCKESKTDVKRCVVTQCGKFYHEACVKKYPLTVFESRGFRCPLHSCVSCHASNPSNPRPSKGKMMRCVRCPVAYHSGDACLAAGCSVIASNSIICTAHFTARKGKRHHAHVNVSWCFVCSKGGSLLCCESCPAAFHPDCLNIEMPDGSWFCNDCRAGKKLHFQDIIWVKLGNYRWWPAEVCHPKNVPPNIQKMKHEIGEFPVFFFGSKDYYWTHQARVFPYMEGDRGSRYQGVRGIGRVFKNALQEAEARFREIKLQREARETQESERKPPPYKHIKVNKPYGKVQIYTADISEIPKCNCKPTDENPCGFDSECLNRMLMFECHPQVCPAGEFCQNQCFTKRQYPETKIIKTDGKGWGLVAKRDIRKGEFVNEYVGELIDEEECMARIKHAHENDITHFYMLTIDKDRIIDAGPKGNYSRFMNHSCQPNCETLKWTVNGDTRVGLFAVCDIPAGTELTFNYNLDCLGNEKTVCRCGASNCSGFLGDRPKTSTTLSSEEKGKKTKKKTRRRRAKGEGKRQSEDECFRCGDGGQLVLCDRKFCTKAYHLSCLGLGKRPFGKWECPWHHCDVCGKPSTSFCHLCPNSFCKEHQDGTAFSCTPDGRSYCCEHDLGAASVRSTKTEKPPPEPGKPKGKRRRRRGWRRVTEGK

[7] = target: T2, Fatty acid synthase; assay: FAS thioesterase domain inhibitors, dose response, biochemical, endpoint fluorescence intensity, uHTS hits (AID 624327); format: functional;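 note: fluorescence from hydrolysis of an O-methyl fluorescein acyl ester substrate by the enzyme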
[8] = target: T4, fMet-Leu-Phe receptor (Homo sapiens, UniProt P21462); assay: FPR ligands, dose response (AID 519); format: functional
T4 sequence (P21462 whole entry): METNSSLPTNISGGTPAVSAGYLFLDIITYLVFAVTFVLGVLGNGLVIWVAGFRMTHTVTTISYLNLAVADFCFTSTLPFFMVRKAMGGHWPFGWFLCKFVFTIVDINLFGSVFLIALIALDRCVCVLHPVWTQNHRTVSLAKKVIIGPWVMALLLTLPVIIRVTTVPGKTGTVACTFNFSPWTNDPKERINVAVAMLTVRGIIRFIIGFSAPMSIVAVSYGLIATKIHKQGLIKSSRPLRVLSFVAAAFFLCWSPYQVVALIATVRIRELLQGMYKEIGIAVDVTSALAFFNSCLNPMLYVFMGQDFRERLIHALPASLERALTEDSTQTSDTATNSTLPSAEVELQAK

[9] = target: Kallikrein-7 (Homo sapiens, UniProt P49862); assay: Fluorescence Intensity-based biochemical primary high throughput dose response assay to identify activators of kallikrein-7 (K7) zymogen.
[10] = Counterscreen for antagonists of the orexin 1 receptor (OX1R; HCRTR1): Fluorescence-based cell-based high throughput dose response assay to identify antagonists of the parental CHO cell line. [Related pubchem assays (depositor defined):AID434989, AID435008, AID463079, AID485270, AID492963, AID492964, AID492965, AID493232, AID504699, AID504701]; format: functional
[11] = target: T5, Orexin/Hypocretin receptor type 1 (Homo sapiens, UniProt O43613); assay: Homogeneous Time Resolved Fluorescence (HTRF)-based cell-based high throughput dose response assay for antagonists of the orexin 1 receptor (OX1R; HCRTR1). [Related pubchem assays (depositor defined):AID434989, AID435008, AID463079, AID485270, AID492963, AID492964, AID492965, AID493232, AID504717, AID504718]; format: functional
T5 sequence (O43613 whole entry): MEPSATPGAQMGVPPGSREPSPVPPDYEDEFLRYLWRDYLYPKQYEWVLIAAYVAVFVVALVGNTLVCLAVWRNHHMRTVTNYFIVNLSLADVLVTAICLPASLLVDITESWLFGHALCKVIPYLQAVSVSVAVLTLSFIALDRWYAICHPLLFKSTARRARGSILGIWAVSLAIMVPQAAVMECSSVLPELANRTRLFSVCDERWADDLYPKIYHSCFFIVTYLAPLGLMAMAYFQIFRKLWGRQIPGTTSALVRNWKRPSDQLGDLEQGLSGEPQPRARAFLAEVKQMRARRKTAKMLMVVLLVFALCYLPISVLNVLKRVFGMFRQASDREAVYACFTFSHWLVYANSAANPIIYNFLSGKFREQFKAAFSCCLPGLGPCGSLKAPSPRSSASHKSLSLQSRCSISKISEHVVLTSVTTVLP

[12] = target: T6, Orexin receptor type 2 (Homo sapiens, UniProt O43614); assay: Counterscreen assay for antagonists of the orexin 1 receptor (OX1R; HCRTR1): Homogeneous Time Resolved Fluorescence (HTRF)-based cell-based dose response assay for antagonists of the orexin 2 receptor (OX2R; HCRTR2), run by assay provider.; format: functional
T6 sequence (O43614 whole entry): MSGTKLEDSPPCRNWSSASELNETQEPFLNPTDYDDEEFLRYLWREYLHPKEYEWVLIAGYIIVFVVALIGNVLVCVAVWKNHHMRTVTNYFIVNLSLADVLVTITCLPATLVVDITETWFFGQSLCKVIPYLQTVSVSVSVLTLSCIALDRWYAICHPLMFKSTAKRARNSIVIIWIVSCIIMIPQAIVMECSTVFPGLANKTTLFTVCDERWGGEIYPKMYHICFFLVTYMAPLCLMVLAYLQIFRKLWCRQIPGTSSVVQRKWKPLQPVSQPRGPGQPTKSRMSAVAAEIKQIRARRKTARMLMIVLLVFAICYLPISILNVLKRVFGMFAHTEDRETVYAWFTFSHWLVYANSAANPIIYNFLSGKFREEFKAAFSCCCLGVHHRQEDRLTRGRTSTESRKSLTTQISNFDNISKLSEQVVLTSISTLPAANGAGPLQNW

[13] = target: T6, Orexin receptor type 2; assay: Counterscreen assay for antagonists of the orexin 1 receptor (OX1R; HCRTR1): Fluorescence-based cell-based dose response assay for antagonists of the orexin 2 receptor (OX2R; HCRTR2), run by assay provider.; format: functional
[14] = test system: CHO-K1; assay: Counterscreen for antagonists of the orexin 1 receptor (OX1R; HCRTR1): Homogeneous time resolved fluorescence (HTRF)-based cell-based dose response assay to identify antagonists of the parental CHO-K1 cell line. [Related pubchem assays (depositor defined):AID434989, AID435008, AID463079, AID485270, AID492963, AID492964, AID492965, AID493232, AID504699, AID504701]; format: functional; details: Cricetulus griseus;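 note: potency for inhibition of ATP-stimulated IP1 production as antagonists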
[15] = target: T5, Orexin/Hypocretin receptor type 1; assay: Fluorescence-based cell-based high throughput dose response assay for antagonists of the orexin 1 receptor (OX1R; HCRTR1). [Related pubchem assays (depositor defined):AID434989, AID435008, AID463079, AID485270, AID492963, AID492964, AID492965, AID493232, AID504717, AID504718]; format: functional
[16] = HEp-2 cell cytotoxicity, dose response, cytotoxicity control for RSV inhibitor project, HTS (AID 2410); format: functional; details: human respiratory syncytial virus
[17] = LGR2 antagonists, dose response, cell-based, HEK293, CRE-luciferase reporter, cherry pick, set 2 (AID 743343); format: functional;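 note: transfected cells were stimulated with diluted bursicon conditioned medium after compound addition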
[18] = HepG2 cell cytotoxicity, dose response, cytotoxicity control, plate reader, cherry-pick, antagonist series (AID 743416); format: functional, cell-based
[19] = MC4R antagonists, dose response, counter-screen for LGR2 antagonist project, cell-based, plate reader, cherry pick (AID 743444); format: functional;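 note: transfected HEK 293 cells stimulated with alpha-MSH peptide; potency of inhibitors of the alpha-MSH evoked signal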
[20] = HEK293 cell cytotoxicity, dose response, cytotoxicity control, plate reader, cherry-picked samples (AID 743446); format: functional, cell-based

T2 sequence (P49327 whole entry, the tested form may be a part): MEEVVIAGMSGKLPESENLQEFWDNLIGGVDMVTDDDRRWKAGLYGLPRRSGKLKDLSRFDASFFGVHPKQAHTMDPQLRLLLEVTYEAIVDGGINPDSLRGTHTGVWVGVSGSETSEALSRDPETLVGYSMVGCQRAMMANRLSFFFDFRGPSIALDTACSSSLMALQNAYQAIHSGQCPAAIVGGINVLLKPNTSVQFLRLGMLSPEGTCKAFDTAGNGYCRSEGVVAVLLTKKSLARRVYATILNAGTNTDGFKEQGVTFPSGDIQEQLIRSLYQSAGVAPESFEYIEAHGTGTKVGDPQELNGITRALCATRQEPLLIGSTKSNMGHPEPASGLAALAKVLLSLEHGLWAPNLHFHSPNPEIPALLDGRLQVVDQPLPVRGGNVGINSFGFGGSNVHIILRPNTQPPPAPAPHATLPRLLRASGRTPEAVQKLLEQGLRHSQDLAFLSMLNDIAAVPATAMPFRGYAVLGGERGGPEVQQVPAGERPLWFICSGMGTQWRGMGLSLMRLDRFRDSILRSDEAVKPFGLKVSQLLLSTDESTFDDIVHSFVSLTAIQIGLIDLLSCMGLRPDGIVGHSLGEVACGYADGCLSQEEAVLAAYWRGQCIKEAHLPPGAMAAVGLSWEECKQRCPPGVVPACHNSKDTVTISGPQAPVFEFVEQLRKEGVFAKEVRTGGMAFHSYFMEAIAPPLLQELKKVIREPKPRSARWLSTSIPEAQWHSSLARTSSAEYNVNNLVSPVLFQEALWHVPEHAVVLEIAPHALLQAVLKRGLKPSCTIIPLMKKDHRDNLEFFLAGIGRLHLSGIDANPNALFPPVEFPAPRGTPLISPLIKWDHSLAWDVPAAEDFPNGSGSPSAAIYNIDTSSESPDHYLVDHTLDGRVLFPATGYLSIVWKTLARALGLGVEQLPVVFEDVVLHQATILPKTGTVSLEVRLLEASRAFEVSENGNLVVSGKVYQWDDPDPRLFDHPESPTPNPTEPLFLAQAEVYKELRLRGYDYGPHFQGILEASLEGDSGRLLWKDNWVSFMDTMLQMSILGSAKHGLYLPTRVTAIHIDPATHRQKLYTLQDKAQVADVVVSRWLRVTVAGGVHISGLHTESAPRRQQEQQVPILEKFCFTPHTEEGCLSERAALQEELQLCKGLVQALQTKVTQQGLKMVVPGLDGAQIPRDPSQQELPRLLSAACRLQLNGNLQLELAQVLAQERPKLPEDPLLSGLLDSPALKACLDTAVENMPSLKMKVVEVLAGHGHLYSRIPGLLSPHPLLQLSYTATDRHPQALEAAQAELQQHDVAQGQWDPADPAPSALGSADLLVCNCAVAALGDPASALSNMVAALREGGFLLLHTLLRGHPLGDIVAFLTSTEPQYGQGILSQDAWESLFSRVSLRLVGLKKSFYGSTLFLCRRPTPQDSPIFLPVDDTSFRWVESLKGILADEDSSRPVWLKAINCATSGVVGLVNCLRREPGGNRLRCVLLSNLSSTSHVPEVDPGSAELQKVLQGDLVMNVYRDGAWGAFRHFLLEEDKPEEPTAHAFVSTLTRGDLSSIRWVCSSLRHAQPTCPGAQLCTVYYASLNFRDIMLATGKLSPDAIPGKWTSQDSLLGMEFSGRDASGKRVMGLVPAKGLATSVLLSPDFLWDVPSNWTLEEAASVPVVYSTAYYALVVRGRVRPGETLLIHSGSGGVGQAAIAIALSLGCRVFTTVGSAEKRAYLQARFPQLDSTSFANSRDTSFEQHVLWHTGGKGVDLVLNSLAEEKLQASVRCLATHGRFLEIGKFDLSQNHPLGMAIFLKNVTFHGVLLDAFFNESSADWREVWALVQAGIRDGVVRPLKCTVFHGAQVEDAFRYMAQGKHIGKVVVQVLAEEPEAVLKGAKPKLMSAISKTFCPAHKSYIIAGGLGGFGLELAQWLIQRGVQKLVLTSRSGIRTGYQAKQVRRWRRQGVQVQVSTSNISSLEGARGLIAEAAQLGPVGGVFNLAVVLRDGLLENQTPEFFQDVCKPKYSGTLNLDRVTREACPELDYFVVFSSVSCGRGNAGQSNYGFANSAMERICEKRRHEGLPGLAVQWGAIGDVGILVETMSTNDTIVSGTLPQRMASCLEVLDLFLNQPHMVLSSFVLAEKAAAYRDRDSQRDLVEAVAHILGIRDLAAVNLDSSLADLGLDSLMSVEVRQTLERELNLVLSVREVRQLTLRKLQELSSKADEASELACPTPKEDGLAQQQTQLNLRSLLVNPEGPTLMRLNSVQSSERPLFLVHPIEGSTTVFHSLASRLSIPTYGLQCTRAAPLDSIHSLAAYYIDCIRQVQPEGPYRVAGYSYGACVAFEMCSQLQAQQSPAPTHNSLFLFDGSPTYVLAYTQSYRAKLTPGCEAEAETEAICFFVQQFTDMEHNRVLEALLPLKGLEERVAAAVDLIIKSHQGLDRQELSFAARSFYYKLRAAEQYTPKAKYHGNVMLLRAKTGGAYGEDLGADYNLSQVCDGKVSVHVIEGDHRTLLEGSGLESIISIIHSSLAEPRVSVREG
Sequence of Kallikrein-7 (P49862 whole entry): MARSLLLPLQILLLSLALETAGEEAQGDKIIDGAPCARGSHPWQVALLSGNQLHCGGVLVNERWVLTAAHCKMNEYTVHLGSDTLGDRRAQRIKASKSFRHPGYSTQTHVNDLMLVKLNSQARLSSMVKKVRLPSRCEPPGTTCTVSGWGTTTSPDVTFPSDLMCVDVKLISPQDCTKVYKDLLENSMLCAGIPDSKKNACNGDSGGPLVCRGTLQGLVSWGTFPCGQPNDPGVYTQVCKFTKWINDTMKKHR
Sequence of Paired box protein Pax-8 (Q06710 whole entry): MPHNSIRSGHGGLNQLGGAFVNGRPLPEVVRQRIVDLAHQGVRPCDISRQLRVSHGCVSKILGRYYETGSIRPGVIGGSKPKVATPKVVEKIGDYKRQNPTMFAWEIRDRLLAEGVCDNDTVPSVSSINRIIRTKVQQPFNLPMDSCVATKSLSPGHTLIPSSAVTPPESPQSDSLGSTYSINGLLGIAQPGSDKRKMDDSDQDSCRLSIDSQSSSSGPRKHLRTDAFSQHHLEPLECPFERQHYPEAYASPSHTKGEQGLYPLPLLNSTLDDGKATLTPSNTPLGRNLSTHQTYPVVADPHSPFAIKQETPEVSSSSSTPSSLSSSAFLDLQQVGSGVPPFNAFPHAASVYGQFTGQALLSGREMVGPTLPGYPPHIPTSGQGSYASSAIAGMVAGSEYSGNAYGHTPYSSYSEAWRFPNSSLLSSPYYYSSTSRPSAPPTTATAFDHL

Compound	IC50 [3]	IC50 [7]	IC50 [10]	IC50 [11]	IC50 [12]	IC50 [13]	IC50 [14]	IC50 [15]	also measured
Cc1ccc2c(c1C)-c1c(ccc(C)c1C)C(=O)C2=O	5.23 µM (active)	7.89 µM (active)							IC50 [1]: 8.67 µM (active); AC50 [2]: 2.79 µM (active); AC50 [4]: 3.16 µM (active); AC50 [5]: 3.67 µM (active); AC50 [6]: 0.531 µM (active)
CCOC(=O)CSc1nnc(CNC(=O)c2cc(OCC)c(OCC)c(OCC)c2)n1C									Ki [8]: > 66.7 µM (inactive)
CCOC(=O)c1cc2c(=O)n3ccccc3nc2n(CC2CCCO2)/c1=N/C(=O)/C=C/c1ccccc1 (stereo unspecified)	3.99 µM (active)	2.71 µM (active)							EC50 [9]: > 69.5 µM (inactive)
Cc1nc2c(C#N)cnn2c(O)c1Cc1ccccc1									Ki [8]: 27.4 µM (inactive)
CN(Cc1ccccc1)C(=O)c1[nH]cnc1C(=O)N[C@@H](Cc1ccccc1)C(=O)OC(C)(C)C			> 49.8 µM (inactive)	0.515 µM (active)	> 50 µM (inactive)	> 88.8 µM (inactive)	> 66.2 µM (inactive)	5.87 µM (active)	
O=C(/C=C/c1cccc([N+](=O)[O-])c1)NCCSCc1cccc(Cl)c1	7.25 µM (active)	11.7 µM (active)							CC50 [16]: 14.3 µM (active)
Cc1cc(O)cc2c(=O)c3ccccc3sc12			> 49.8 µM (inactive)	3.64 µM (active)	0.009 µM (active)	> 88.8 µM (inactive)	> 66.3 µM (inactive)	8.54 µM (active)	
CC1Cc2cc(C(=O)C3=C(O)C(=O)N(CCN4CCOCC4)C3c3ccccc3F)ccc2O1 (stereo unspecified)									Ki [8]: > 66.7 µM (inactive)
COc1ccc2nc(-c3ccc(F)cc3)sc2c1									AC50 [17]: 2.55 µM (active); AC50 [18]: > 52 µM (inactive); AC50 [19]: 2.35 µM (active); AC50 [20]: > 52 µM (inactive)
O=c1cc(CN2CC(O)Cc3ccc4ccccc4c32)nc2sccn12 (stereo unspecified)			> 49.7 µM (inactive)	4.12 µM (active)	> 50 µM (inactive)	> 88.8 µM (inactive)	> 66.2 µM (inactive)	3.29 µM (active)	
CN(Cc1cccs1)C(=O)Cn1cnc2cc([N+](=O)[O-])ccc2c1=O	5.16 µM (active)	7.81 µM (active)							
CCCCNC(=O)CCC(=O)NNc1nc2ccccc2c2nc(-c3ccccc3)nn12			> 49.8 µM (inactive)	2.69 µM (active)	> 50 µM (inactive)	> 88.8 µM (inactive)	> 66.2 µM (inactive)	7.27 µM (active)	
